Measured values as given in patent US9981916B2 (Genentech, Inc., priority 2013, dated 2018).

biological target: T1, RORc ligand binding domain (Homo sapiens, UniProt P51449); experiment: In vitro RORc ligand binding assay (25-[3H]hydroxycholesterol displacement, filter binding); conditions: 6 nM 25-[3H]hydroxycholesterol, 0.6 ug/mL RORc receptor, 3 h at 25° C.
T1 construct: host or cells: E. coli
T1 sequence (P51449 269-508 limits assumed): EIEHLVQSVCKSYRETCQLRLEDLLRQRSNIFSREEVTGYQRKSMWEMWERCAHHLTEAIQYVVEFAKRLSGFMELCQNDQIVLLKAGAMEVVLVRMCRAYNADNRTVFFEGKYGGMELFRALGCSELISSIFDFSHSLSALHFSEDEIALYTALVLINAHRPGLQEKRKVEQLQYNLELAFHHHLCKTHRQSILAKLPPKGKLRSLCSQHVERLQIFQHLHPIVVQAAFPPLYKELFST
Description: Example 17: In Vitro RORc Ligand Binding Assay
This assay was used to determine a compound's potency in inhibiting activity of RORc by determining, Kiapp, IC50, or percent inhibition values.
On day of the assay, 100 uL of 0.05% CHAPS (in deionized H2O) was added to all wells of the GFB Unifilter plate and allowed soak for 1 h. A wash buffer of 50 mM HEPES (pH 7.4), 150 mM NaCl, and 5 mM MgCl2 was prepared to wash the filter plate. To prepare an assay buffer, BSA was added to the wash buffer to reach 0.01% and DTT was added to reach 1 mM.
For IC50 mode, 10 mM compound stocks were serially diluted in DMSO with DMSO to give 20× required final concentration in DMSO (15 uL compound+30 uL DMSO). The 20× compound stocks were diluted in DMSO with Assay Buffer 4-fold to reach 5× the final test concentration in 25% DMSO (10 uL compound+30 uL Assay Buffer). Solutions were mixed by aspiration several times with a pipette set on 50 uL volume. For the assay, 10 uL of 5× compound stock solutions in 25% DMSO were added to the assay plate in duplicate.
For two point screening, 10 mM stock compound solutions were diluted in DMSO to obtain 200 uM (20× the high test concentration) and then diluted 10-fold further to reach 20 uM (20× the low test concentration). The 20× stocks were diluted 4-fold with Assay Buffer (10 uL compound+30 uL Assay Buffer) to reach 5× the test concentrations (50 uM and 5 uM) and 10 uL were added to two assay plates for the duplicate wells. With each concentration tested on 2 plates, each set of 80 compounds used 4 assay plates (1 uM and 10 uM, with n=2).
25-hydroxycholesterol (1 uM) was used to determine the level of NSB signal is prepared in DMSO as for compounds above, then diluted in Assay Buffer to give a final concentration of 5 uM. For 25-hydroxycholesterol in 25% DMSO/75% Assay Buffer; 10 uL per well was used for NSB samples. Wells for Total Binding and No Receptor sample determination contained 10 uL of 25% DMSO/75% Assay Buffer per well.
25-[^3H]hydroxycholesterol was diluted in Assay Buffer to obtain 15 nM and vortex to mix. Add 20 uL to all wells to reach 6 nM final concentration in the assay.
Stock receptor solution was diluted in assay buffer to obtain 1.5 ug/mL in Assay Buffer. 20 uL was added to all wells. For No Receptor samples, 20 uL Assay Buffer was substituted for receptor solution.
Assay plates were 96-well polypropylene V-bottom plates. 10 uL of 5× compound in 25% DMSO/75% Assay Buffer was added to Test wells. 10 uL of 25% DMSO/75% Assay Buffer was added to Total Binding or No Receptor wells. 10 uL of 5 uM 25-hydroxycholesterol in 25% DMSO/75% Assay Buffer was added to NSB wells. 20 uL of 15 nM 25-[^3H]hydroxycholesterol prepared in Assay Buffer was added to all wells. 20 uL of 1.5 ug/mL RORc receptor was added to wells (or […] Assay Buffer to No R wells). Following addition to the wells, the plates were incubated 3 h at 25° C.
Using a Packard Filtermate Harvester, the filter plate were washed 4 times following transfer of the incubated samples. Plates were dry-filtered completely (2 h at 50° C. or overnight at room temperature). 50 uL Microscint 0 was added to all wells and read on Topcount protocol Inverted.
Final concentrations were as follows: 50 mM HEPES buffer (pH 7.4); 150 mM NaCl; 1 mM DTT; 5 mM MgCl2; 0.01% BSA; 5% DMSO; 0.6 ug/mL RORc receptor; 6 nM 25-[^3H]hydroxycholesterol. For NSB wells, 1 uM 25-hydroxycholesterol was also present.

Row | SMILES | IC50
1 | Cc1ccnc(C2CN(C(=O)[C@@]34CC[C@@H](c5cc(-c6ccccc6F)nnc53)C4(C)C)C2)n1 [Example 181, ((5R,8R)-3-(2-fluorophenyl)-9,9-dimethyl-5,6,7,8-tetrahydro-5,8-methanocinnolin-8-yl)(3-(4-methylpyrimidin-2-yl)azetidin-1-yl)methanone] | 2750 nM
2 | CC1(C)[C@@H]2CC[C@@]1(C(=O)N1C[C@@H]3C[C@H]1CO3)c1nnc(-c3c(F)cccc3F)cc12 [Example 231, (1S,4S)-2-oxa-5-azabicyclo[2.2.1]heptan-5-yl((5S,8S)-3-(2,6-difluorophenyl)-9,9-dimethyl-5,6,7,8-tetrahydro-5,8-methanocinnolin-8-yl)methanone] | 241 nM
3 | CN(CC(N)=O)[C@@]12CC[C@@H](c3cc(-c4c(F)cccc4F)nnc31)C2(C)C [Example 306, 2-(((5R,8R)-3-(2,6-difluorophenyl)-9,9-dimethyl-5,6,7,8-tetrahydro-5,8-methanocinnolin-8-yl)(methyl)amino) acetamide] | 920 nM
4 | C[C@@H]1CN(C[C@@]23CC[C@@H](c4cc(-c5c(F)cccc5F)nnc42)C3(C)C)C(=O)O1 [Example 314, (R)-3-(((5R,8S)-3-(2,6-difluorophenyl)-9,9-dimethyl-5,6,7,8-tetrahydro-5,8-methanocinnolin-8-yl)methyl)-5-methyloxazolidin-2-one] | 454 nM
5 | C[C@H]1CCCN1C(=O)[C@]12CC[C@H](c3cc(-c4c(F)cccc4F)nnc31)C2(C)C [Example 234, ((5S,8S)-3-(2,6-difluorophenyl)-9,9-dimethyl-5,6,7,8-tetrahydro-5,8-methanocinnolin-8-yl)((S)-2-methylpyrrolidin-1-yl)methanone] | 238 nM
6 | CC1(C)[C@H]2CC[C@]1(n1cnnc1)c1nnc(-c3c(F)cccc3F)cc12 [Example 107, (5R,8R)-3-(2,6-difluorophenyl)-9,9-dimethyl-8-(4H-1,2,4-triazol-4-yl)-5,6,7,8-tetrahydro-5,8-methanocinnoline] | 1500 nM
7 | CC1(C)[C@H]2CC[C@]1(c1ccn(CCC#N)n1)c1nnc(-c3c(F)cccc3F)cc12 [Example 287] | 623 nM
8 | CC1(C)[C@@H]2CC[C@@]1(C(=O)N1CC(F)C1)c1nnc(-c3c(F)cccc3F)cc12 [Example 93, [(5S,8S)-3-(2,6-difluorophenyl)-9,9-dimethyl-6,7-dihydro-5,8-methanocinnolin-8(5H)-yl](3-fluoroazetidin-1-yl)methanone] | 127 nM
9 | CC1(C)[C@@H]2CC[C@@]1(C(=O)N1CC3(CCC3)C1)c1nnc(-c3c(F)cccc3F)cc12 [Example 240, ((5S,8S)-3-(2,6-difluorophenyl)-9,9-dimethyl-5,6,7,8-tetrahydro-5,8-methanocinnolin-8-yl)(2-azaspiro[3.3]heptan-2-yl)methanone] | 217 nM
10 | CN(C)Cc1nnc([C@@]23CC[C@@H](c4cc(-c5c(F)cccc5F)nnc42)C3(C)C)o1 [Example 196, 1-(5-((5R,8R)-3-(2,6-difluorophenyl)-9,9-dimethyl-5,6,7,8-tetrahydro-5,8-methanocinnolin-8-yl)-1,3,4-oxadiazol-2-yl)-N,N-dimethylmethanamine] | 1890 nM
11 | CC1(C)[C@@H]2CC[C@@]1(C(=O)NCc1ccc(F)cc1)c1nnc(-c3ccccc3F)cc12 [Example 133, (5S,8S)-N-(4-fluorobenzyl)-3-(2-fluorophenyl)-9,9-dimethyl-5,6,7,8-tetrahydro-5,8-methanocinnoline-8-carboxamide] | 876 nM
12 | CC1(C)[C@H]2CC[C@]1(COc1cnccn1)c1nnc(-c3c(F)cccc3F)cc12 [Example 329, (5R,8R)-3-(2,6-difluorophenyl)-9,9-dimethyl-8-((pyrazin-2-yloxy)methyl)-5,6,7,8-tetrahydro-5,8-methanocinnoline] | 271 nM

The next lines start with the values.

Row | IC50 | SMILES
13 | 21 nM | CCNC(=O)N(CC)C[C@@]12CC[C@@H](c3cc(-c4c(F)cccc4F)nnc31)C2(C)C [Example 288, 1-(((5R,8S)-3-(2,6-difluorophenyl)-9,9-dimethyl-5,6,7,8-tetrahydro-5,8-methanocinnolin-8-yl)methyl)-1,3-diethylurea]
14 | 49 nM | Cc1nnc([C@@]23CC[C@@H](c4cc(Oc5c(F)cccc5F)nnc42)C3(C)C)o1 [Example 336, 2-((5R,8R)-3-(2,6-difluorophenoxy)-9,9-dimethyl-5,6,7,8-tetrahydro-5,8-methanocinnolin-8-yl)-5-methyl-1,3,4-oxadiazole]
15 | 17 nM | CC1(C)[C@H]2CC[C@]1(c1ncco1)c1nnc(-c3c(F)cccc3F)cc12 [Example 102, (5R,8R)-3-(2,6-difluorophenyl)-9,9-dimethyl-8-(1,3-oxazol-2-yl)-5,6,7,8-tetrahydro-5,8-methanocinnoline]
16 | 66 nM | CC1(C)[C@H]2CC[C@]1(COCc1ccccc1)c1nnc(Oc3c(F)cccc3F)cc12 [Example 338, (5R,8R)-8-((benzyloxy)methyl)-3-(2,6-difluorophenoxy)-9,9-dimethyl-5,6,7,8-tetrahydro-5,8-methanocinnoline]
17 | 11 nM | Cc1nnc(N(C)C[C@@]23CC[C@@H](c4cc(-c5c(F)cccc5F)nnc42)C3(C)C)o1 [Example 146, N-(((5R,8S)-3-(2,6-difluorophenyl)-9,9-dimethyl-5,6,7,8-tetrahydro-5,8-methanocinnolin-8-yl)methyl)-N,5-dimethyl-1,3,4-oxadiazol-2-amine]
18 | 19 nM | Cc1nnc(N(C[C@@]23CC[C@@H](c4cc(-c5c(F)cccc5F)nnc42)C3(C)C)C(C)C)o1 [Example 152, N-(((5R,8S)-3-(2,6-difluorophenyl)-9,9-dimethyl-5,6,7,8-tetrahydro-5,8-methanocinnolin-8-yl)methyl)-N-isopropyl-5-methyl-1,3,4-oxadiazol-2-amine]
19 | 44 nM | CC1(C)[C@H]2CC[C@]1(c1ccon1)c1nnc(-c3c(F)cccc3F)cc12 [Example 197, 3-((5R,8R)-3-(2,6-difluorophenyl)-9,9-dimethyl-5,6,7,8-tetrahydro-5,8-methanocinnolin-8-yl)isoxazole]
20 | 10 nM | CCN(C[C@@]12CC[C@@H](c3cc(-c4c(F)cccc4F)nnc31)C2(C)C)c1nnc(C(F)(F)F)o1 [Example 303, N-(((5R,8S)-3-(2,6-difluorophenyl)-9,9-dimethyl-5,6,7,8-tetrahydro-5,8-methanocinnolin-8-yl)methyl)-N-ethyl-5-(trifluoromethyl)-1,3,4-oxadiazol-2-amine]
21 | 23 nM | CC1(C)[C@@H]2CC[C@@]1(C(=O)N1CCCC1)c1nnc(-c3c(F)cccc3F)cc12 [Example 69, [(5S,8S)-3-(2,6-difluorophenyl)-9,9-dimethyl-6,7-dihydro-5,8-methanocinnolin-8(5H)-yl](pyrrolidin-1-yl)methanone]
22 | 100 nM | CC(=O)OC[C@@]12CC[C@@H](c3cc(Oc4c(F)cccc4F)nnc31)C2(C)C [Example 339, ((5R,8R)-3-(2,6-difluorophenoxy)-9,9-dimethyl-5,6,7,8-tetrahydro-5,8-methanocinnolin-8-yl)methyl acetate]
23 | 124 nM | CC1(C)[C@H]2CC[C@]1(CN(CCO)c1ncccn1)c1nnc(-c3c(F)cccc3F)cc12 [Example 272, 2-((((5R,8S)-3-(2,6-difluorophenyl)-9,9-dimethyl-5,6,7,8-tetrahydro-5,8-methanocinnolin-8-yl)methyl)(pyrimidin-2-yl)amino)ethanol]
